Laboratory results from patent publication US20210161135A1, “WEED CONTROL FROM APPLICATIONS OF PYRIDINE CARBOXYLIC ACID HERBICIDES AND 4-HYDROXYPHENYL-PYRUVATE DIOXYGENASE (HPPD) INHIBITORS” (Dow AgroSciences LLC, priority 2018, published 2021).

Assays:
Assay in all cases: Postemergence herbicidal activity, greenhouse, visual injury after 20-22 d
Format in all cases: in vivo
[1] = test system: grain sorghum (Sorghum vulgare, SORVU); details: two trials
Procedure: (§1) Seeds of the desired test plant species were planted in Sun Gro MetroMix® 306 planting mixture, which typically has a pH of 6.0 to 6.8 and an organic matter content of about 30 percent, in plastic pots with a surface area of 103.2 square centimeters (cm^2). When required to ensure good germination and healthy plants, a fungicide treatment and/or other chemical or physical treatment was applied. The plants were grown for 7-36 days (d) in a greenhouse with an approximate 14-hour (h) photoperiod which was maintained at about 23° C. during the day and 22° C. during the night. Nutrients and water were added on a regular basis and supplemental lighting was provided with overhead metal halide 1000-Watt lamps as necessary. The plants were employed for testing when they reached the second or third true leaf stage.
(§2) An emulsifiable concentrate (EC) formulation containing Compound 1 at 100 gai/L was prepared by combining Compound 1 with 1-butyl-2-pyrrolidinone (Tamisolve NxG; 360.5 g/L), benzyl acetate (544.6 g/L) and Agnique MBL 520L surfactant (52.9 g/L). […] The concentrated stock solutions were diluted with an aqueous mixture of 1.5% v/v of Agri-dex crop oil concentrate to provide the appropriate application rates. Compound requirements are based upon a 12 milliliter (mL) application volume at a rate of 187 liters per hectare (L/ha). Spray solutions of the experimental compound mixtures were prepared by adding the stock solutions to the appropriate amount of dilution solution to form a 12 mL spray solution in two-way combinations. Formulated compounds were applied to the plant material with an overhead Mandel track sprayer equipped with 8002E nozzles calibrated to deliver 187 L/ha over an application area of 0.503 square meters (m^2) at a spray height of […] above average plant canopy. Control plants were sprayed in the same manner with the solvent blank. Application rates for component (a) are in g ai/ha, and application rates for component (b) are in g ai/ha.
(§3) The treated plants and control plants were placed in a greenhouse as described above and watered by sub-irrigation to prevent wash-off of the test compounds. After 20-22 d, the condition of the test plants as compared with that of the control plants was determined visually and scored on a scale of 0 to 100 percent where 0 corresponds to no injury and 100 corresponds to complete kill. […] The Colby method was used to determine the herbicidal effects expected from the mixtures.

[2] = test system: velvetleaf (Abutilon theophrasti, ABUTH)
Procedure: as §1, §2, §3

[3] = test system: wild pansy (Viola tricolor, VIOTR)
Procedure: as §1, §2, §3

[4] = test system: giant foxtail (Setaria faberi, SETFA); details: two trials
Procedure: as §1, §2, §3

[5] = test system: common lambsquarters (Chenopodium album L., CHEAL)
Procedure: as §1, §2, §3

[6] = test system: large crabgrass (Digitaria sanguinalis, DIGSA); details: HPPD inhibitor 35 g ai/ha alone, two trials
Procedure: as §1, §2, §3

[7] = test system: spring rape (Brassica napus, BRSNN)
Procedure: as §1, §2, §3

[8] = test system: sunflower (Helianthus annuus, HELAN); details: two trials
Procedure: as §1, §2, §3

maize (Zea mays, ZEAMX) = details: two trials
Procedure: as §1, §2, §3

[9] = test system: soybean (Glycine max, GLXMA); details: two trials
Procedure: as §1, §2, §3

[10] = test system: winter rape (Brassica napus, BRSNW); details: two trials
Procedure: as §1, §2, §3

[11] = test system: wild buckwheat (Polygonum convolvulus, POLCO)
Procedure: as §1, §2, §3

[12] = test system: ivyleaf morningglory (Ipomoea hederacea, IPOHE); details: two trials
Procedure: as §1, §2, §3

[13] = test system: thistle (Cirsium arvense CIRAR)
Procedure: as §1, §2, §3

[14] = test system: poinsettia (Euphorbia heterophylla, EPHHL)
Procedure: as §1, §2, §3

[15] = test system: barnyardgrass (Echinochloa crus-galli, ECHCG); details: two trials
Procedure: as §1, §2, §3

[16] = test system: kochia (Kochia scoparia, KCHSC)
Procedure: as §1, §2, §3

[17] = test system: pigweed (Amaranthus retroflexus, AMARE); details: two trials
Procedure: as §1, §2, §3

[18] = test system: common chickweed (Stellaria media, STEME); details: two trials
Procedure: as §1, §2, §3

[19] = test system: rice (Oryza sativa, ORYSA); details: Sulcotrione 75 g ai/ha alone, two trials
Procedure: as §1, §2, §3

[20] = test system: winter wheat (Triticum aestivum, TRZAW); details: Sulcotrione 75 g ai/ha alone, two trials
Procedure: as §1, §2, §3

[21] = HPPD inhibitor 35 g ai/ha alone
[22] = HPPD inhibitor 35 g ai/ha alone, two trials
[23] = Sulcotrione 75 g ai/ha alone, two trials

CS(=O)(=O)c1ccc(C(=O)C2C(=O)CCCC2=O)c([N+](=O)[O-])c1 [Mesotrione, 2-[4-(methylsulfonyl)-2-nitrobenzoyl]-1,3-cyclohexanedione]
Effect (% visual injury), Obs [1, 21]: 0%
Effect (% visual injury), Obs [2, 22]: 88%
Effect (% visual injury), Obs [3, 22]: 58%
Effect (% visual injury), Obs [4, 21]: 0%
Effect (% visual injury), Obs [5, 22]: 100%
Effect (% visual injury), Obs [6]: 20%
Effect (% visual injury), Obs [7, 22]: 100%
Effect (% visual injury), Obs [8, 21]: 93%
Effect (% visual injury), Obs (maize (Zea mays, ZEAMX); [21]): 0%
Effect (% visual injury), Obs [9, 21]: 70%
Effect (% visual injury), Obs [10, 21]: 60%
Effect (% visual injury), Obs [11, 22]: 48%
Effect (% visual injury), Obs [12, 21]: 70%
Effect (% visual injury), Obs [13, 22]: 100%
Effect (% visual injury), Obs [14, 22]: 20%
Effect (% visual injury), Obs [15, 21]: 10%
Effect (% visual injury), Obs [16, 22]: 70%
Effect (% visual injury), Obs [17, 21]: 30%
Effect (% visual injury), Obs [18, 21]: 60%

Cc1ccc(S(=O)(=O)Oc2c(C(=O)c3ccc(Cl)cc3Cl)c(C)nn2C)cc1 [Pyrazolynate, (2,4-dichlorophenyl)[1,3-dimethyl-5-[[(4-methylphenyl)sulfonyl]oxy]-1H-pyrazol-4-yl]methanone]
Effect (% visual injury), Obs ([2]; Pyrazolynate 225 g ai/ha alone): 0%
Effect (% visual injury), Obs ([3]; Pyrazolynate 225 g ai/ha alone): 0%
Effect (% visual injury), Obs ([5]; Pyrazolynate 225 g ai/ha alone): 10%
Effect (% visual injury), Obs ([7]; Pyrazolynate 225 g ai/ha alone): 0%
Effect (% visual injury), Obs ([11]; Pyrazolynate 225 g ai/ha alone): 0%
Effect (% visual injury), Obs ([13]; Pyrazolynate 225 g ai/ha alone): 0%
Effect (% visual injury), Obs ([14]; Pyrazolynate 225 g ai/ha alone): 0%
Effect (% visual injury), Obs ([16]; Pyrazolynate 225 g ai/ha alone): 0%

CS(=O)(=O)c1ccc(C(=O)C2C(=O)CCCC2=O)c(Cl)c1 [Sulcotrione, 2-[2-chloro-4-(methylsulfonyl)benzoyl]-1,3-cyclohexanedione]
Effect (% visual injury), Obs ([1]; Sulcotrione 75 g ai/ha alone): 0%
Effect (% visual injury), Obs [2, 23]: 50%
Effect (% visual injury), Obs [3, 23]: 73%
Effect (% visual injury), Obs ([4]; Sulcotrione 75 g ai/ha alone): 0%
Effect (% visual injury), Obs [5, 23]: 100%
Effect (% visual injury), Obs [7, 23]: 95%
Effect (% visual injury), Obs ([8]; Sulcotrione 75 g ai/ha alone): 80%
Effect (% visual injury), Obs (maize (Zea mays, ZEAMX); Sulcotrione 75 g ai/ha alone): 0%
Effect (% visual injury), Obs ([9]; Sulcotrione 75 g ai/ha alone): 65%
Effect (% visual injury), Obs [19]: 5%
Effect (% visual injury), Obs ([10]; Sulcotrione 75 g ai/ha alone): 70%
Effect (% visual injury), Obs [11, 23]: 48%
Effect (% visual injury), Obs ([12]; Sulcotrione 75 g ai/ha alone): 65%
Effect (% visual injury), Obs [13, 23]: 70%
Effect (% visual injury), Obs [14, 23]: 60%
Effect (% visual injury), Obs ([15]; Sulcotrione 75 g ai/ha alone): 40%
Effect (% visual injury), Obs [20]: 0%
Effect (% visual injury), Obs [16, 23]: 45%
Effect (% visual injury), Obs ([17]; Sulcotrione 75 g ai/ha alone): 40%
Effect (% visual injury), Obs ([18]; Sulcotrione 75 g ai/ha alone): 85%
